# Organism: Rattus norvegicus
# Assay: DrugMatrix - Regimen: Daily Repeat
# Type: toxicity, organism-based, Sprague-Dawley
# Design: regimen Daily Repeat, gender Male, age 6-8 weeks
# Settings: in vivo, po, route oral GAVAGE, vehicle 60 % PEG400; for URIC ACID / ALANINE AMINOTRANSFERASE / ALBUMIN / ALKALINE PHOSPHATASE / ASPARTATE AMINOTRANSFERASE / BLOOD UREA NITROGEN / CARBON DIOXIDE / CHLORIDE / CHOLESTEROL / CREATINE PHOSPHOKINASE / CREATININE / GLUCOSE / LACTATE DEHYDROGENASE / LIPASE / PHOSPHORUS / POTASSIUM / SODIUM / TOTAL BILIRUBIN / TOTAL PROTEIN: tissue Plasma; for ABSOLUTE BASOPHIL / ABSOLUTE EOSINOPHIL / ABSOLUTE LYMPHOCYTE / ABSOLUTE MONOCYTE / ABSOLUTE SEGMENTED NEUTROPHIL / BASOPHIL / EOSINOPHIL / ERYTHROCYTE COUNT / HEMATOCRIT / HEMOGLOBIN / LEUKOCYTE COUNT / LYMPHOCYTE / MEAN CORPUSCULAR HEMOGLOBIN / MEAN CORPUSCULAR HEMOGLOBIN CONCENTRATION / MEAN CORPUSCULAR VOLUME / MONOCYTE / NEUTROPHIL / NUCLEATED RED BLOOD CELLS / PLATELET COUNT: tissue Blood
# [1] = 0.001 mg/kg, 120 h, dose level Low, time 5 day
# [2] = 0.1 mg/kg, 72 h, dose level High, time 3 day
# [3] = 0.1 mg/kg, 120 h, dose level High, time 5 day
structure (smiles),measurement,setting,value
N[C@@H](Cc1cc(I)c(Oc2ccc(O)c(I)c2)c(I)c1)C(=O)O [LIOTHYRONINE],URIC ACID,"0.001 mg/kg, 72 h, dose level Low, time 3 day",1.37 mg/dL
same,ABSOLUTE BASOPHIL,[1],0 CELLS/uL
same,ABSOLUTE EOSINOPHIL,[1],0 CELLS/uL
same,ABSOLUTE LYMPHOCYTE,[1],5590 CELLS/uL
same,ABSOLUTE MONOCYTE,[1],0 CELLS/uL
same,ABSOLUTE SEGMENTED NEUTROPHIL,[1],543.33 CELLS/uL
same,BASOPHIL,[1],0%
same,EOSINOPHIL,[1],0%
same,ERYTHROCYTE COUNT,[1],5.59 x10E6/uL
same,HEMATOCRIT,[1],33.3%
same,HEMOGLOBIN,[1],12.43 G/DL
same,LEUKOCYTE COUNT,[1],6.13 x10E3/uL
same,LYMPHOCYTE,[1],91%
same,MEAN CORPUSCULAR HEMOGLOBIN,[1],22.27 pg
same,MEAN CORPUSCULAR HEMOGLOBIN CONCENTRATION,[1],37.37 G/DL
same,MEAN CORPUSCULAR VOLUME,[1],59.57 fL
same,MONOCYTE,[1],0%
same,NEUTROPHIL,[1],9%
same,NUCLEATED RED BLOOD CELLS,[1],0.67 /100WBC
same,PLATELET COUNT,[1],972.33 x10E3/uL
same,ALANINE AMINOTRANSFERASE,[1],52.67 u/L
same,ALBUMIN,[1],4.57 G/DL
same,ALKALINE PHOSPHATASE,[1],421 u/L
same,ASPARTATE AMINOTRANSFERASE,[1],80.33 u/L
same,BLOOD UREA NITROGEN,[1],15.33 mg/dL
same,CARBON DIOXIDE,[1],31 mmol/L
same,CHLORIDE,[1],100.33 MEQ/L
same,CHOLESTEROL,[1],86 mg/dL
same,CREATINE PHOSPHOKINASE,[1],257.67 u/L
same,CREATININE,[1],0.19 mg/dL
same,GLUCOSE,[1],174.33 mg/dL
same,LACTATE DEHYDROGENASE,[1],98.33 u/L
same,LIPASE,[1],8.33 u/L
same,PHOSPHORUS,[1],12.67 mg/dL
same,POTASSIUM,[1],6.56 MEQ/L
same,SODIUM,[1],144.9 MEQ/L
same,TOTAL BILIRUBIN,[1],0.1 mg/dL
same,URIC ACID,[1],2.23 mg/dL
same,ABSOLUTE BASOPHIL,[2],0 CELLS/uL
same,ABSOLUTE EOSINOPHIL,[2],0 CELLS/uL
same,ABSOLUTE LYMPHOCYTE,[2],13461.67 CELLS/uL
same,ABSOLUTE MONOCYTE,[2],261.67 CELLS/uL
same,ABSOLUTE SEGMENTED NEUTROPHIL,[2],1443.33 CELLS/uL
same,BASOPHIL,[2],0%
same,EOSINOPHIL,[2],0%
same,ERYTHROCYTE COUNT,[2],6.02 x10E6/uL
same,HEMATOCRIT,[2],37%
same,HEMOGLOBIN,[2],14.37 G/DL
same,LEUKOCYTE COUNT,[2],15.17 x10E3/uL
same,LYMPHOCYTE,[2],89.33%
same,MEAN CORPUSCULAR HEMOGLOBIN,[2],23.9 pg
same,MEAN CORPUSCULAR HEMOGLOBIN CONCENTRATION,[2],38.8 G/DL
same,MEAN CORPUSCULAR VOLUME,[2],61.5 fL
same,MONOCYTE,[2],1.67%
same,NEUTROPHIL,[2],9%
same,NUCLEATED RED BLOOD CELLS,[2],0 /100WBC
same,PLATELET COUNT,[2],889 x10E3/uL
same,ALANINE AMINOTRANSFERASE,[2],70.67 u/L
same,ALBUMIN,[2],4.1 G/DL
same,ALKALINE PHOSPHATASE,[2],525 u/L
same,ASPARTATE AMINOTRANSFERASE,[2],112 u/L
same,BLOOD UREA NITROGEN,[2],14.67 mg/dL
same,CARBON DIOXIDE,[2],26.67 mmol/L
same,CHLORIDE,[2],104 MEQ/L
same,CHOLESTEROL,[2],88 mg/dL
same,CREATINE PHOSPHOKINASE,[2],402.67 u/L
same,CREATININE,[2],0.19 mg/dL
same,GLUCOSE,[2],148.67 mg/dL
same,LACTATE DEHYDROGENASE,[2],156.67 u/L
same,LIPASE,[2],14 u/L
same,PHOSPHORUS,[2],15.67 mg/dL
same,POTASSIUM,[2],7.38 MEQ/L
same,SODIUM,[2],147 MEQ/L
same,TOTAL BILIRUBIN,[2],0.13 mg/dL
same,TOTAL PROTEIN,[2],5.67 G/DL
same,URIC ACID,[2],2.47 mg/dL
same,ABSOLUTE BASOPHIL,[3],0 CELLS/uL
same,ABSOLUTE EOSINOPHIL,[3],0 CELLS/uL
same,ABSOLUTE LYMPHOCYTE,[3],3351.33 CELLS/uL
same,ABSOLUTE MONOCYTE,[3],14.67 CELLS/uL
same,ABSOLUTE SEGMENTED NEUTROPHIL,[3],800.67 CELLS/uL
same,BASOPHIL,[3],0%
same,EOSINOPHIL,[3],0%
same,ERYTHROCYTE COUNT,[3],5.59 x10E6/uL
same,HEMATOCRIT,[3],34.2%
same,HEMOGLOBIN,[3],12.77 G/DL
same,LEUKOCYTE COUNT,[3],4.17 x10E3/uL
same,LYMPHOCYTE,[3],80.33%
same,MEAN CORPUSCULAR HEMOGLOBIN,[3],22.83 pg
same,MEAN CORPUSCULAR HEMOGLOBIN CONCENTRATION,[3],37.33 G/DL
same,MEAN CORPUSCULAR VOLUME,[3],61.17 fL
same,MONOCYTE,[3],0.33%
same,NEUTROPHIL,[3],19.33%
same,NUCLEATED RED BLOOD CELLS,[3],0.33 /100WBC
same,PLATELET COUNT,[3],792.67 x10E3/uL
same,ALANINE AMINOTRANSFERASE,[3],69.67 u/L
same,ALBUMIN,[3],4.13 G/DL
same,ALKALINE PHOSPHATASE,[3],576 u/L
same,ASPARTATE AMINOTRANSFERASE,[3],110 u/L
same,BLOOD UREA NITROGEN,[3],12.67 mg/dL
same,CARBON DIOXIDE,[3],32.67 mmol/L
same,CHLORIDE,[3],103.33 MEQ/L
same,CHOLESTEROL,[3],94.67 mg/dL
same,CREATINE PHOSPHOKINASE,[3],218 u/L
same,CREATININE,[3],0.12 mg/dL
same,GLUCOSE,[3],132.67 mg/dL
same,LACTATE DEHYDROGENASE,[3],105.33 u/L
same,LIPASE,[3],12.33 u/L
same,PHOSPHORUS,[3],13.73 mg/dL
same,POTASSIUM,[3],7.47 MEQ/L
same,SODIUM,[3],149.43 MEQ/L
same,TOTAL BILIRUBIN,[3],0.13 mg/dL
same,TOTAL PROTEIN,[3],5.8 G/DL
same,URIC ACID,[3],2.43 mg/dL

# From ChEMBL document CHEMBL3885881, “DrugMatrix”
